Values quoted from earlier work as cited in patent publication US20120172289A1, “MULTIFUNCTIONAL GLYCOPEPTIDE ANTIBIOTIC DERIVATIVES FOR FLUORESCENT IMAGING AND PHOTOACTIVE ANTIMICROBIAL THERAPY” (NANYANG TECHNOLOGICAL UNIVERSITY, priority 2010, published 2012).

Tested on: D-Ala-D-Lac
Conditions: mutation of peptidoglycan sequence in VRE

For `CN[C@H](CC(C)C)C(=O)N[C@H]1C(=O)N[C@@H](CC(N)=O)C(=O)N[C@H]2C(=O)N[C@H]3C(=O)N[C@H](C(=O)N[C@H](C(=O)O)c4cc(O)cc(O)c4-c4cc3ccc4O)[C@H](O)c3ccc(c(Cl)c3)Oc3cc2cc(c3O[C@@H]2O[C@H](CO)[C@@H](O)[C@H](O)[C@H]2O[C@H]2C[C@](C)(N)[C@H](O)[C@H](C)O2)Oc2ccc(cc2Cl)[C@H]1O` [Vancomycin], the “decrease of binding affinity, D-Ala-D-Ala to D-Ala-D-Lac” value is given as ~10^3 times.
